Structures are written as SMILES. A value given as a limit tells only on which side of the number the result lay.

The term EC50 denotes the concentration giving half of the maximal effect.

The subject of this experiment is recombinant NL4-3 virus (Renilla luciferase in nef, Gag P373S). Briefly: HIV cell culture assay (luciferase activity in MT-2 cells infected with NLRluc recombinant virus). The experiment is classed as cell-based. The note with it: NL43, MT-2 cells infected 4-5 days with NLRluc recombinant virus, class symbol. Put shortly:
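Activity was read as luciferase output (Dual Luciferase reagents premixed with lysis solution) after 4–5 days of infection in serially diluted inhibitor. Host cells were MT-2 in 10% FBS RPMI. The reporter virus came from transfected 293T cells and was titered on MT-2.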
For `C=C(C)[C@@H]1CC[C@]2(CNCCC(=O)N3CCC[C@@H]3C(=O)O)CC[C@]3(C)[C@H](CC[C@@H]4[C@@]5(C)CC=C(c6ccc(C(=O)O)cc6)C(C)(C)[C@@H]5CC[C@]43C)[C@@H]12` [Example 100, (R)-1-(3-(((1R,3aS,5aR,5bR,7aR,11aS,11bR,13aR,13bR)-9-(4-carboxyphenyl)-5a,5b,8,8,11a-pentamethyl-1-(prop-1-en-2-yl)-2,3,3a,4,5,5a,5b,6,7,7a,8,11,11a,11b,12,13,13a,13b-octadecahydro-1H-cyclopenta[a]chrysen-3a-yl)methylamino)propanoyl)pyrrolidine-2-carboxylic acid], the EC50 was less than 0.1 µM. On to `C=C(C)[C@@H]1CC[C@]2(CNCCC(=O)N3CCC[C@H]3C(=O)OC)CC[C@]3(C)[C@H](CC[C@@H]4[C@@]5(C)CC=C(c6ccc(C(=O)O)cc6)C(C)(C)[C@@H]5CC[C@]43C)[C@@H]12` [Example 101, 4-((1R,3aS,5aR,5bR,7aR,11aS,11bR,13aR,13bR)-3a-((3-((S)-2-(methoxycarbonyl)pyrrolidin-1-yl)-3-oxopropylamino)methyl)-5a,5b,8,8,11a-pentamethyl-1-(prop-1-en-2-yl)-2,3,3a,4,5,5a,5b,6,7,7a,8,11,11a,11b,12,13,13a,13b-octadecahydro-1H-cyclopenta[a]chrysen-9-yl)benzoic acid], for which the EC50 was less than 0.1 µM. To `C=C(C)[C@@H]1CC[C@]2(CNCCC(=O)N3CCC[C@H]3C(=O)O)CC[C@]3(C)[C@H](CC[C@@H]4[C@@]5(C)CC=C(c6ccc(C(=O)O)cc6)C(C)(C)[C@@H]5CC[C@]43C)[C@@H]12` [Example 102, (S)-1-(3-(((1R,3aS,5aR,5bR,7aR,11aS,11bR,13aR,13bR)-9-(4-carboxyphenyl)-5a,5b,8,8,11a-pentamethyl-1-(prop-1-en-2-yl)-2,3,3a,4,5,5a,5b,6,7,7a,8,11,11a,11b,12,13,13a,13b-octadecahydro-1H-cyclopenta[a]chrysen-3a-yl)methylamino)propanoyl)pyrrolidine-2-carboxylic acid] belongs less than 0.1 µM; to `C=C(C)[C@@H]1CC[C@]2(CNCCC(=O)N3CCC(F)(F)C3)CC[C@]3(C)[C@H](CC[C@@H]4[C@@]5(C)CC=C(c6ccc(C(=O)O)cc6)C(C)(C)[C@@H]5CC[C@]43C)[C@@H]12` [Example 103, 4-((1R,3aS,5aR,5bR,7aR,11aS,11bR,13aR,13bR)-3a-((3-(3,3-difluoropyrrolidin-1-yl)-3-oxopropylamino)methyl)-5a,5b,8,8,11a-pentamethyl-1-(prop-1-en-2-yl)-2,3,3a,4,5,5a,5b,6,7,7a,8,11,11a,11b,12,13,13a,13b-octadecahydro-1H-cyclopenta[a]chrysen-9-yl)benzoic acid], less than 0.1 µM; to `C=C(C)[C@@H]1CC[C@]2(CNCCC(=O)N3CCC(C(=O)O)CC3)CC[C@]3(C)[C@H](CC[C@@H]4[C@@]5(C)CC=C(c6ccc(C(=O)O)cc6)C(C)(C)[C@@H]5CC[C@]43C)[C@@H]12` [Example 104, 1-(3-(((1R,3aS,5aR,5bR,7aR,11aS,11bR,13aR,13bR)-9-(4-carboxyphenyl)-5a,5b,8,8,11a-pentamethyl-1-(prop-1-en-2-yl)-2,3,3a,4,5,5a,5b,6,7,7a,8,11,11a,11b,12,13,13a,13b-octadecahydro-1H-cyclopenta[a]chrysen-3a-yl)methylamino)propanoyl)piperidine-4-carboxylic acid], less than 0.1 µM. For the compound `C=C(C)[C@@H]1CC[C@]2(CNCCC(=O)N3CCN(C)CC3)CC[C@]3(C)[C@H](CC[C@@H]4[C@@]5(C)CC=C(c6ccc(C(=O)O)cc6)C(C)(C)[C@@H]5CC[C@]43C)[C@@H]12` [Example 105, 4-((1R,3aS,5aR,5bR,7aR,11aS,11bR,13aR,13bR)-5a,5b,8,8,11a-pentamethyl-3a-((3-(4-methylpiperazin-1-yl)-3-oxopropylamino)methyl)-1-(prop-1-en-2-yl)-2,3,3a,4,5,5a,5b,6,7,7a,8,11,11a,11b,12,13,13a,13b-octadecahydro-1H-cyclopenta[a]chrysen-9-yl)benzoic acid], the 50% effective concentration (EC50) was less than 0.1 µM.

In the case of `C=C(C)[C@@H]1CC[C@]2(CNCCC(=O)N3CC(F)(F)C(F)(F)C3)CC[C@]3(C)[C@H](CC[C@@H]4[C@@]5(C)CC=C(c6ccc(C(=O)O)cc6)C(C)(C)[C@@H]5CC[C@]43C)[C@@H]12` [Example 106, 4-((1R,3aS,5aR,5bR,7aR,11aS,11bR,13aR,13bR)-5a,5b,8,8,11a-pentamethyl-3a-((3-oxo-3-(3,3,4,4-tetrafluoropyrrolidin-1-yl)propylamino)methyl)-1-(prop-1-en-2-yl)-2,3,3a,4,5,5a,5b,6,7,7a,8,11,11a,11b,12,13,13a,13b-octadecahydro-1H-cyclopenta[a]chrysen-9-yl)benzoic acid], the EC50 is less than 0.1 µM. Turning to `C=C(C)[C@@H]1CC[C@]2(CNCCC(=O)N3CCOCC3)CC[C@]3(C)[C@H](CC[C@@H]4[C@@]5(C)CC=C(c6ccc(C(=O)O)cc6)C(C)(C)[C@@H]5CC[C@]43C)[C@@H]12` [Example 107, 4-((1R,3aS,5aR,5bR,7aR,11aS,11bR,13aR,13bR)-5a,5b,8,8,11a-pentamethyl-3a-((3-morpholino-3-oxopropylamino)methyl)-1-(prop-1-en-2-yl)-2,3,3a,4,5,5a,5b,6,7,7a,8,11,11a,11b,12,13,13a,13b-octadecahydro-1H-cyclopenta[a]chrysen-9-yl)benzoic acid], the EC50 is less than 0.1 µM. `C=C(C)[C@@H]1CC[C@]2(CNCC(=O)N3CCS(=O)(=O)CC3)CC[C@]3(C)[C@H](CC[C@@H]4[C@@]5(C)CC=C(c6ccc(C(=O)O)cc6)C(C)(C)[C@@H]5CC[C@]43C)[C@@H]12` [Example 108, 4-((1R,3aS,5aR,5bR,7aR,11aS,11bR,13aR,13bR)-3a-(((2-(1,1-dioxido-4-thiomorpholinyl)-2-oxoethyl)amino)methyl)-1-isopropenyl-5a,5b,8,8,11a-pentamethyl-2,3,3a,4,5,5a,5b,6,7,7a,8,11,11a,11b,12,13,13a,13b-octadecahydro-1H-cyclopenta[a]chrysen-9-yl)benzoic acid]: the half-maximal effective concentration (EC50) is less than 0.1 µM.

Consider `C=C(C)[C@@H]1CC[C@]2(CNCC(=O)N3CCCC3)CC[C@]3(C)[C@H](CC[C@@H]4[C@@]5(C)CC=C(c6ccc(C(=O)O)cc6)C(C)(C)[C@@H]5CC[C@]43C)[C@@H]12` [Example 109, 4-((1R,3aS,5aR,5bR,7aR,11aS,11bR,13aR,13bR)-5a,5b,8,8,11a-pentamethyl-3a-((2-oxo-2-(pyrrolidin-1-yl)ethylamino)methyl)-1-(prop-1-en-2-yl)-2,3,3a,4,5,5a,5b,6,7,7a,8,11,11a,11b,12,13,13a,13b-octadecahydro-1H-cyclopenta[a]chrysen-9-yl)benzoic acid], for which the EC50 was less than 0.1 µM. Consider `C=C(C)[C@@H]1CC[C@]2(CNCC(=O)N3CCCCC3)CC[C@]3(C)[C@H](CC[C@@H]4[C@@]5(C)CC=C(c6ccc(C(=O)O)cc6)C(C)(C)[C@@H]5CC[C@]43C)[C@@H]12` [Example 110, 4-((1R,3aS,5aR,5bR,7aR,11aS,11bR,13aR,13bR)-5a,5b,8,8,11a-pentamethyl-3a-((2-oxo-2-(piperidin-1-yl)ethylamino)methyl)-1-(prop-1-en-2-yl)-2,3,3a,4,5,5a,5b,6,7,7a,8,11,11a,11b,12,13,13a,13b-octadecahydro-1H-cyclopenta[a]chrysen-9-yl)benzoic acid], for which the EC50 is less than 0.1 µM. To `C=C(C)[C@@H]1CC[C@]2(CNCC(=O)N3CCC(C(=O)OCC)CC3)CC[C@]3(C)[C@H](CC[C@@H]4[C@@]5(C)CC=C(c6ccc(C(=O)O)cc6)C(C)(C)[C@@H]5CC[C@]43C)[C@@H]12` [Example 111, 4-((1R,3aS,5aR,5bR,7aR,11aS,11bR,13aR,13bR)-3a-((2-(4-(ethoxycarbonyl)piperidin-1-yl)-2-oxoethylamino)methyl)-5a,5b,8,8,11a-pentamethyl-1-(prop-1-en-2-yl)-2,3,3a,4,5,5a,5b,6,7,7a,8,11,11a,11b,12,13,13a,13b-octadecahydro-1H-cyclopenta[a]chrysen-9-yl)benzoic acid] belongs less than 0.1 µM.

On to `C=C(C)[C@@H]1CC[C@]2(CNCC(=O)N3CCC(C(=O)O)CC3)CC[C@]3(C)[C@H](CC[C@@H]4[C@@]5(C)CC=C(c6ccc(C(=O)O)cc6)C(C)(C)[C@@H]5CC[C@]43C)[C@@H]12` [Example 112, 1-(2-(((1R,3aS,5aR,5bR,7aR,11aS,11bR,13aR,13bR)-9-(4-carboxyphenyl)-5a,5b,8,8,11a-pentamethyl-1-(prop-1-en-2-yl)-2,3,3a,4,5,5a,5b,6,7,7a,8,11,11a,11b,12,13,13a,13b-octadecahydro-1H-cyclopenta[a]chrysen-3a-yl)methylamino)acetyl)piperidine-4-carboxylic acid], for which the concentration for a half-maximal effect (EC50) is less than 0.1 µM. Regarding `C=C(C)[C@@H]1CC[C@]2(CNCC(=O)N3CCN(S(=O)(=O)N(C)C)CC3)CC[C@]3(C)[C@H](CC[C@@H]4[C@@]5(C)CC=C(c6ccc(C(=O)O)cc6)C(C)(C)[C@@H]5CC[C@]43C)[C@@H]12` [Example 113, 4-((1R,3aS,5aR,5bR,7aR,11aS,11bR,13aR,13bR)-3a-((2-(4-(N,N-dimethylsulfamoyl)piperazin-1-yl)-2-oxoethylamino)methyl)-5a,5b,8,8,11a-pentamethyl-1-(prop-1-en-2-yl)-2,3,3a,4,5,5a,5b,6,7,7a,8,11,11a,11b,12,13,13a,13b-octadecahydro-1H-cyclopenta[a]chrysen-9-yl)benzoic acid], the EC50 is less than 0.1 µM. Turning to `C=C(C)[C@@H]1CC[C@]2(CNCC(=O)N3CCC[C@@H]3C(=O)O)CC[C@]3(C)[C@H](CC[C@@H]4[C@@]5(C)CC=C(c6ccc(C(=O)O)cc6)C(C)(C)[C@@H]5CC[C@]43C)[C@@H]12` [Example 114, (R)-1-(2-(((1R,3aS,5aR,5bR,7aR,11aS,11bR,13aR,13bR)-9-(4-carboxyphenyl)-5a,5b,8,8,11a-pentamethyl-1-(prop-1-en-2-yl)-2,3,3a,4,5,5a,5b,6,7,7a,8,11,11a,11b,12,13,13a,13b-octadecahydro-1H-cyclopenta[a]chrysen-3a-yl)methylamino)acetyl)pyrrolidine-2-carboxylic acid], the EC50 is less than 0.1 µM.
